Data from article PMC6691843, “Seeking new approach for therapeutic treatment of cholera disease via inhibition of bacterial carbonic anhydrases: experimental and theoretical studies for sixteen benzenesulfonamide derivatives” (Journal of Enzyme Inhibition and Medicinal Chemistry, 2019).
Where two headings read alike, the source gives them in different places.

Legend:
VchCAγ = VchCAγ (Vibrio cholerae, UniProt Q9KVT1); assay: stopped flow CO2 hydrase assay, VchCAγ; type: biochemical
VchCAα = target: T1, VchCAα (Vibrio cholerae serotype O1, UniProt Q9KMP6); assay: stopped flow CO2 hydrase assay, VchCAα; type: biochemical; conditions: for Ki: stopped flow CO2 hydrase assay, mean from three different assays
T1 construct: made in house; host or cells: E. coli BL21 DE3
T1 sequence (Q9KMP6 21-239): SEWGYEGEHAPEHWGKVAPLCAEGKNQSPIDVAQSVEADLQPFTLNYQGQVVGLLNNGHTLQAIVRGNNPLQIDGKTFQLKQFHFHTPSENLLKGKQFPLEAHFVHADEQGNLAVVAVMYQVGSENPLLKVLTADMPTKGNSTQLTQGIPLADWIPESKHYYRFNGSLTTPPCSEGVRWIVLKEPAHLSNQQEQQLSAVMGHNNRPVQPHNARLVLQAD

VchCAβ = VchCAβ (Vibrio cholerae, UniProt A0A086SLX8); assay: stopped flow CO2 hydrase assay, VchCAβ; type: biochemical; conditions: for inhibitory activity toward VchCAβ (in words): qualitative statement
VchCAβ, sequence (A0A086SLX8 entry or part of it): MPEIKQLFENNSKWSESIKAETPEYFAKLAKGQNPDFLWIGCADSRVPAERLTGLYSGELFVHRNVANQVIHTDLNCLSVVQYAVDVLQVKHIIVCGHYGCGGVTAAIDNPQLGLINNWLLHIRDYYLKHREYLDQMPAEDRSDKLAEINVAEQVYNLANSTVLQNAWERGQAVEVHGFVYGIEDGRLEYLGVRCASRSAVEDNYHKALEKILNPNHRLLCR

pathogen = test system: pathogen; design: method as in PMID 26010545; conditions: cited from earlier work

VchCAγ, sequence (Q9KVT1 entry or part of it): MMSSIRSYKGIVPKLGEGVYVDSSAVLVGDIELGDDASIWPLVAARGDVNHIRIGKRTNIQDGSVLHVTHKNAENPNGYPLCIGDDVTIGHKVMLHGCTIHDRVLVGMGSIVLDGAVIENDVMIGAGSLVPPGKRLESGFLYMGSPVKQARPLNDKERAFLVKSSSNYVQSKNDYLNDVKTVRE

Question: What does the source list for NS(=O)(=O)c1ccc(C(=O)N2CCCCC2)cc1 [5a, 4-(Piperidine-1-carbonyl)benzenesulfonamide]?
Answer: Ki (VchCAγ): > 10 µM; Ki (VchCAα; Ki VchCAα): 0.843 µM; Ki (VchCAβ): > 10 µM

Question: For CC1CCCCN1C(=O)c1ccc(S(N)(=O)=O)cc1 (stereo not shown) [5b, 4-(2-Methylpiperidine-1-carbonyl)benzenesulfonamide], which Ki (VchCAγ) is on record?
Answer: > 10 µM

Question: What about the Ki (VchCAα; Ki VchCAα) of the same compound?
Answer: 0.296 µM

Question: And the Ki (VchCAβ)?
Answer: > 10 µM

Question: What does the source list for CC1CCCN(C(=O)c2ccc(S(N)(=O)=O)cc2)C1 (stereo not shown) [5c, 4-(3-Methylpiperidine-1-carbonyl)benzenesulfonamide]?
Answer: Ki (VchCAγ): > 10 µM; Ki (VchCAα; Ki VchCAα): 0.529 µM; Ki (VchCAβ): > 10 µM

Question: Which Ki (VchCAγ) does the source give for CC1CCN(C(=O)c2ccc(S(N)(=O)=O)cc2)CC1 [5d, 4-(4-Methylpiperidine-1-carbonyl)benzenesulfonamide] here?
Answer: > 10 µM

Question: And the Ki (VchCAα; Ki VchCAα)?
Answer: 0.589 µM

Question: What about the melting point of the same compound?
Answer: 212 to 213 °C

Question: What about the Ki (VchCAβ) of the same compound?
Answer: > 10 µM

Question: Which results are given for NS(=O)(=O)c1ccc(C(=O)N2CCC(Cc3ccccc3)CC2)cc1 [5e, 4-(4-Benzylpiperidine-1-carbonyl)benzenesulfonamide]?
Answer: Ki (VchCAγ): > 10 µM; Ki (VchCAα; Ki VchCAα): 0.242 µM; melting point: 156 to 157 °C; Ki (VchCAβ): 3.75 µM

Question: With NS(=O)(=O)c1ccc(C(=O)N2CCCCCC2)cc1 [6a, 4-(Azepane-1-carbonyl)benzenesulfonamide] as the compound, how does the Ki (VchCAγ) read?
Answer: > 10 µM

Question: What about the Ki (VchCAα; Ki VchCAα) of the same compound?
Answer: 0.275 µM

Question: What about the Ki (VchCAβ) of the same compound?
Answer: > 10 µM

Question: Which Ki (VchCAγ) does the source give for NS(=O)(=O)c1ccc(C(=O)N2CCC(c3ccccc3)CC2)cc1 [7a, 4-(4-Phenylpiperidine-1-carbonyl)benzenesulfonamide] here?
Answer: > 10 µM

Question: What about the Ki (VchCAα; Ki VchCAα) of the same compound?
Answer: 0.0433 µM

Question: And the melting point?
Answer: 222 to 223 °C

Question: What about the Ki (VchCAβ) of the same compound?
Answer: 3.31 µM

Question: What does the source list for NS(=O)(=O)c1ccc(C(=O)N2CCC(O)(c3ccccc3)CC2)cc1 [7b, 4-(4-Hydroxy-4-phenylpiperidine-1-carbonyl)benzenesulfonamide]?
Answer: Ki (VchCAγ): > 10 µM; Ki (VchCAα; Ki VchCAα): 0.194 µM; melting point: 135 to 137 °C; Ki (VchCAβ): 3.71 µM

Question: With NS(=O)(=O)c1ccc(C(=O)N2CCC(O)(c3ccc(Cl)cc3)CC2)cc1 [7c, 4-[4-(4-Chlorophenyl)-4-hydroxypiperidine-1-carbonyl]benzenesulfonamide] as the compound, how does the Ki (VchCAγ) read?
Answer: > 10 µM

Question: And the Ki (VchCAα; Ki VchCAα)?
Answer: 0.0451 µM

Question: And the melting point?
Answer: 215 to 217 °C

Question: And the Ki (VchCAβ)?
Answer: 3.94 µM

Question: For NS(=O)(=O)c1ccc(C(=O)N2CCC(O)(c3ccc(Br)cc3)CC2)cc1 [7d, 4-[4-(4-Bromophenyl)-4-hydroxy-piperidine-1-carbonyl]benzenesulfonamide], which Ki (VchCAγ) is on record?
Answer: > 10 µM

Question: And the Ki (VchCAα; Ki VchCAα)?
Answer: 0.0588 µM

Question: And the melting point?
Answer: 219 to 220 °C

Question: And the Ki (VchCAβ)?
Answer: 2.78 µM

Question: Which results are given for N#CC1(c2ccccc2)CCN(C(=O)c2ccc(S(N)(=O)=O)cc2)CC1 [7e, 4-(4-Cyano-4-phenylpiperidine-1-carbonyl)benzenesulfonamide]?
Answer: Ki (VchCAγ): > 10 µM; Ki (VchCAα; Ki VchCAα): 0.0899 µM; melting point: 285 to 286 °C; Ki (VchCAβ): 0.806 µM

Question: With CC(=O)C1(c2ccccc2)CCN(C(=O)c2ccc(S(N)(=O)=O)cc2)CC1 [7f, 4-(4-Acetyl-4-phenyl-piperidine-1-carbonyl)benzenesulfonamide] as the compound, how does the Ki (VchCAγ) read?
Answer: > 10 µM

Question: What about the Ki (VchCAα; read-out: Ki VchCAα) of the same compound?
Answer: 0.0721 µM

Question: What about the Ki (VchCAβ) of the same compound?
Answer: 6.61 µM

Question: For NS(=O)(=O)c1ccc(C(=O)N2CCN(Cc3ccccc3)CC2)cc1 [8a, 4-(4-Benzylpiperazine-1-carbonyl)benzenesulfonamide], which Ki (VchCAγ) is on record?
Answer: > 10 µM

Question: And the “reduction of activity on VchCAα compared to parent compound 8d” value (VchCAα; 8a versus 8d)?
Answer: ten-fold reduction of activity

Question: And the Ki (VchCAα; Ki VchCAα)?
Answer: 0.47 µM

Question: What about the melting point of the same compound?
Answer: 204 to 205 °C

Question: And the Ki (VchCAβ)?
Answer: > 10 µM

Question: What about the “inhibitory activity toward VchCAβ (in words)” value (VchCAβ) of the same compound?
Answer: completely loss of inhibitory activity

Question: For NS(=O)(=O)c1ccc(C(=O)N2CCN(Cc3ccc(F)cc3)CC2)cc1 [8b, 4-[4-[(4-Fluorophenyl)methyl]piperazine-1-carbonyl]benzenesulfonamide], which Ki (VchCAγ) is on record?
Answer: > 10 µM

Question: What about the Ki (VchCAα; Ki VchCAα) of the same compound?
Answer: 0.0957 µM

Question: What about the melting point of the same compound?
Answer: 206 to 207 °C

Question: What about the Ki (VchCAβ) of the same compound?
Answer: 5.01 µM

Question: And the “inhibitory activity toward VchCAβ (in words)” value (VchCAβ)?
Answer: moderate inhibitors

Question: For NS(=O)(=O)c1ccc(C(=O)N2CCN(C(c3ccccc3)c3ccccc3)CC2)cc1 [8c, 4-(4-Benzhydrylpiperazine-1-carbonyl)benzenesulfonamide], which Ki (VchCAγ) is on record?
Answer: > 10 µM

Question: And the Ki (VchCAα; Ki VchCAα)?
Answer: 0.275 µM

Question: And the Ki (VchCAβ)?
Answer: 4.82 µM

Question: And the “inhibitory activity toward VchCAβ (in words)” value (VchCAβ)?
Answer: moderate inhibitors

Question: With NS(=O)(=O)c1ccc(C(=O)N2CCN(c3ccccc3)CC2)cc1 [8d, 4-(4-Phenylpiperazine-1-carbonyl)benzenesulfonamide] as the compound, how does the Ki (VchCAγ) read?
Answer: > 10 µM

Question: And the Ki (VchCAα; Ki VchCAα)?
Answer: 0.047 µM

Question: What about the Ki (VchCAβ) of the same compound?
Answer: 4.16 µM

Question: What about the “inhibitory activity toward VchCAβ (in words)” value (VchCAβ) of the same compound?
Answer: moderate inhibitors

Question: With CCOc1ccc2nc(S(N)(=O)=O)sc2c1 [EZA, ethoxzolamide] as the compound, how does the growth of pathogen (pathogen) read?
Answer: reduce the growth of pathogen

Question: What about the virulence gene expression (pathogen) of the same compound?
Answer: decrease the virulence gene expression
